Consider two compounds from patent US5348956A, “Substituted cyclopropylamino-1,3,5-triazines” (UCB S.A., priority 1991, dated 1994).

In data set [1] the test system is bronchospasm induced by serotonin. In words: bronchospasmolytic activity (Konzett and Roessler), bronchospasm induced by serotonin. The class given is in vivo, Dunkin-Hartley guinea-pig. The conditions noted are these: Cavia porcellus, read-out: Doses (ID50), Serotonin. Here is the method:
(§1) This activity was measured in the Dunkin-Hartley guinea-pig by the method of H. KONZETT and […] (Naunyn Schmiedebergs Arch. exp. Path. […] The anesthetized (urethane) and curarized (gallamine) guinea-pig is placed under assisted respiration. The endotracheal pressure is recorded. […] The compound to be tested is also administered intravenously two minutes before the administration of the spasmogen and then in 3 to 4 cumulative doses in increasing amounts at intervals of 15 minutes. Six animals per compound to be tested and per spasmogen are used.

Data set [2] is described as follows: multiple-trial passive avoidance: learning. In kind it is in vivo, male Sprague-Dawley rats. To be noted: 2.5 mg/kg i.p. Here is the method:
To evaluate whether a compound can promote learning, the following test is carried out. […] Rats which remain on the mat for this period have acquired the avoidance reflex and are replaced in their original cage without receiving the electric shock. […] The results obtained in the test used to evaluate learning are given in columns 3 and 4. […] The results were analyzed by the Student test.

In data set [3] the test system is anaphylactic release of histamine, guinea-pig lung sections. In words: potentiation of the inhibition of anaphylactic histamine release by isoprenaline. In kind it is cell-based, Dunkin-Hartley guinea-pigs. The conditions noted are these: with isoprenaline 10^-7 mole per liter. Here is the method: (§2) Dunkin-Hartley guinea-pigs which are first passively sensitized by an intravenous injection of 1 ml of isologous antiovalbumin serum are used. Twenty-four hours after the injection, the lungs are then perfused with a Tyrode buffer to evacuate the blood, and then removed and cut into sections of 1 mm. These sections are divided up into test tubes (3 sections per tube) to give 10 experimental groups of lung sections per guinea-pig. A "positive" control group of lung sections is stimulated by addition of an ovalbumin solution (0.1 mg/ml) to induce the anaphylactic release of histamine and serves to determine the maximum amount of histamine (100%) which can be released. A "negative" control group which is not stimulated by ovalbumin serves to determine the naturally released amount of histamine (spontaneous release). In three other groups, the lung sections are incubated at 37° C. for 30 minutes in the ovalbumin solution in the presence of three different doses of the compound to be tested (one dose per group). […] At this dose, isoprenaline inhibits the release of histamine by 30 to 40%, which is verified on a control group treated only with isoprenaline alone at this dose. In addition, a supplementary control group which is not stimulated by ovalbumin is used to detect a possible spontaneous release of histamine by the highest dose of the compound tested. In each group, the histamine released in the incubation medium is measured by spectrofluorometry (D. P. EVANS et al., Life Sci., 12, (1973), 327-336).

Data set [4] deals with amnesia induced by scopolamine. The data set can be described thus: multiple-trial passive avoidance: mnemic retention, amnesia induced by scopolamine. The conditions noted are these: 2.5 mg/kg i.p. + 0.5 mg scopolamine.
Method: To this end, the method of multiple-trial passive avoidance has been used. […] The test is carried out on male Sprague-Dawley rats (160-200 g). which are kept in standard cages throughout the experiment. The apparatus used is a transparent square cage with 35 cm sides and 25 cm high, fitted with a grid floor which can be electrified. A rubber insulating mat (10×17 cm) is placed on the floor in one of the corners of the cage.
Each animal is subjected to four tests at times 0, 4, 24 and 28 hours. In the first test (time 0), the animal is placed on the rubber mat and the time which it takes to decide to leave this position to explore the cage is recorded. After 20 seconds of exploration, the rat receives an electric shock (3 seconds duration) in the paws, causing an escape reaction. The rat is immediately removed from the apparatus and replaced in its original cage. In the course of the three subsequent tests (times: 4, 24 and 28 hours), the animal is replaced on the rubber mat and the time taken to leave this position is recorded. As soon as the four paws of the animal rest on the grid, it receives an electric shock and is removed immediately from the apparatus.
At the start of the experiment, the rats are divided into 4 homogeneous groups of 15 animals. Thirty minutes before each test, each group of animals is subjected to a predetermined treatment:
Groups 1 and 2 are used in the first experiment (learning) and groups 3 and 4 in the second experiment (mnemic retention).
The differences found are analyzed statistically by the Mann-Whitney method.
The next data set relates to PMN granulocytes. In words: inhibition of the stimulation of PMN granulocytes (chemiluminescence). In kind it is cell-based, Rat. To be noted: for activity at 1 µM: FMLP 3.2×10^-7 mole/liter. The text has this: Polymorphonuclear neutrophil granulocytes (PMN) are cells which are mobilized during inflammatory phenomena and which can be stimulated by various compounds, such as, for example, formylmethionyl-leucylphenylalanine (FMLP) or prostaglandins E (PGE1). The PMN granulocytes respond to these extracellular stimuli with an activation of the oxygen metabolism with release of toxic oxygenated metabolites. An excessive response of the PMN granulocytes may be the cause of a painful inflammation and is also accompanied by a reduction in the level of cyclic adenosine monophosphate (cAMP) in these granulocytes. Consequently, compounds which inhibit the respiratory burst of PMN granulocytes or which increase the level of cAMP can be regarded as very important in the treatment of arthritis and asthma. […] Rat PMN granulocytes (5×10^6 /ml) are preincubated in a phosphate buffer ([…], pH 7.4), containing luminol at a concentration of 10^-5 mole per liter, for 15 minutes at 37° C. and then for 5 minutes in the presence of the compound to be treated at a concentration of 10^-6 mole/liter. […] The luminescence which results from the stimulation is measured by means of an LKB 1251 luminometer according to the method of […] and […] (Infection and Immunology, 37, (1982), 34-39). An experimental cycle lasts 38 seconds. The reaction is repeated 9 times for each compound to be tested and the average of the results obtained is calculated.

Data set [5] deals with anaphylactic release of histamine, guinea-pig lung sections. In words: inhibition of the anaphylactic release of histamine (proper effect). In kind it is cell-based, Dunkin-Hartley guinea-pigs. The conditions noted are these: Cavia porcellus, in vitro, read-out: Minimum inhibitory dose (MID). As for the experimental part: as §2
The next data set is described as follows: toxicity, Irwin's test. The class given is in vivo. The conditions noted are these: i.p.; death of two animals out of three within 48 hours. Here is the method: Progressive doses of the compound to be tested are administered intraperitoneally to groups of three mice until the lethal dose is reached (dose which causes the death of two animals out of three within 48 hours).

Data set [6] has as its system bronchospasm induced by acetylcholine. In words: bronchospasmolytic activity (Konzett and Roessler), bronchospasm induced by acetylcholine. The class given is in vivo, Dunkin-Hartley guinea-pig. To be noted: Cavia porcellus, read-out: Doses (ID50), Acetylcholine. Here is the method: as §1
Data set [7] deals with bronchospasm induced by histamine. The data set can be described thus: bronchospasmolytic activity (Konzett and Roessler), bronchospasm induced by histamine. The conditions noted are these: Cavia porcellus, read-out: Doses (ID50), Histamine. The class given is in vivo, Dunkin-Hartley guinea-pig. As for the experimental part:
as §1

The subject of data set [8] is longitudinal muscles of the ileum contracted by histamine. The data set can be described thus: potentiation of the myorelaxing effect of isoprenaline on the ileum. In kind it is cell-based, Dunkin-Hartley guinea-pigs. To be noted: with isoprenaline 10^-7 mole/l; histamine 3.2 μmoles/l. As for the experimental part: (cf. R. A. TURNER, "Screening Methods in Pharmacology", Ed. Acad. Press, San Diego, 1965, chapter IV, pages 43-47). […] Inhibition cycle: When the successive contractions induced by the histamine injections have become reproducible, the compound to be tested is injected immediately after the second wash. The contraction induced by the following injection of histamine is measured and compared with the average of the three preceding contractions caused by the repeated injections of histamine (control contractions). From the result obtained, the percentage inhibition of the contraction is calculated. Several cycles of histamine injection are then performed again, until the contractions of the muscle become reproducible again; the muscle is then ready for testing of another compound. The potentiating effect of a compound is measured in the course of a so-called "potentiation" cycle, which comprises three successive inhibition cycles. […] In the course of the second inhibition cycle, the percentage inhibition of the contraction obtained with the compound to be tested, injected alone at a given dose, is determined. In the third inhibition cycle, isoprenaline and the compound to be tested are injected simultaneously, and the percentage inhibition of the contraction is calculated for the dose used of the compound tested. The same experiments are repeated for each of the doses of the compounds tested.

Data set [9] concerns plantar edema induced by immune complexes. The data set can be described thus: "reverse passive Arthus" (RPA) test, anti-inflammatory and anti-edema activity. To be noted: Rattus norvegicus, intravenous. In kind it is in vivo, Sprague-Dawley rat. As for the experimental part: The reaction between a soluble antigen and antibodies in the organism may lead to an acute inflammatory reaction accompanied by release of histamine, modification of vascular permeability and formation of a localized edema. […] To this end, the Arthus reaction is induced by subplantar administration of 0.1 ml of heterologous antivalbumin reaginic serum into the right hind paw and by simultaneous intravenous injection of 1 ml/kg ovalbumin (25 mg/ml). The compound to be tested is administered intravenously 30 seconds before induction of the Arthus reaction, in a least 3 different doses. A group of 6 rats is used per dose of compound to be tested. The volume of the paw is measured by plethysmometry before the Arthus reaction and 3 to 5 hours after induction of the Arthus reaction, both in the control animals and in the treated animals. The effect of a compound on the reduction in the edema for each dose and at each measurement time (3 hours and 5 hours) is expressed in % of the edema observed in the control animals. The doses of the compounds (ID30 in μmole/kg) which inhibit by 30%, on average over all the animals, the volume of the edema observed in the control animals are given in Table VII below.

Another data set relates to cAMP in PMN granulocytes. The data set can be described thus: increase in the level of cAMP in PMN granulocytes. The class given is cell-based, Rat. The conditions noted are these: […]10^-6 mole per liter; PGE1 10^-6 mole/liter; control 4.3. The source says:
Polymorphonuclear neutrophil granulocytes (PMN) are cells which are mobilized during inflammatory phenomena and which can be stimulated by various compounds, such as, for example, formylmethionyl-leucylphenylalanine (FMLP) or prostaglandins E (PGE1). The PMN granulocytes respond to these extracellular stimuli with an activation of the oxygen metabolism with release of toxic oxygenated metabolites. An excessive response of the PMN granulocytes may be the cause of a painful inflammation and is also accompanied by a reduction in the level of cyclic adenosine monophosphate (cAMP) in these granulocytes. […] The reaction is then stopped by addition of 1 ml of propanol. After centrifugation at 15,000 g for 3 minutes, the supernatant is recovered and evaporated and the amount of cAMP in the residue is determined by radioimmunological assay according to the process recommended by the supplier of the reagent used for this purpose (Amersham). A control test is carried out under the same conditions, but in the absence of the compound to be tested.

Setting [10] is: Rattus norvegicus, 10^-6 mole/l, read-out: Residual chemiluminescence.
[11] abbreviates: 3 hours after induction of the Arthus reaction, read-out: Dose (ID30), 3 hours.
Where [12] appears, read: 5 hours after induction of the Arthus reaction, read-out: Dose (ID30), 5 hours.

Read-outs that look alike come from different tables or passages of the source.

On to `CCCc1nc(NC2CC2)nc(N2CC(O)C2)n1` [Compound 15], for which the ED50 in data set [1] (intravenous, serotonin-induced bronchospasm) is 0.2 µmol/kg; in data set [6] (intravenous, acetylcholine-induced bronchospasm), 0.3 µmol/kg; in data set [7] (intravenous, histamine-induced bronchospasm), 0.08 µmol/kg. Moreover, in [2], the “Learning, average number of trials, group 2” value is on record as 1.9 trials. Besides, the “Minimum potentiating dose (MPD)” value in data set [3] and in data set [8] was 3.2 µmol/L each time. Also, the “Period of remaining on the mat, group 4” value in [4] (4 hours) was 19.5 s; in [4] (24 hours), 94.3 s; in data set [4] (28 hours), 112.7 s; in data set [4] (time 0), 9.8 s. Further, in the data set with PMN granulocytes (setting [10]), the activity at 1 µM was 70%. The minimal effective concentration in data set [5] is 10 µM. Moreover, in “toxicity, Irwin's test”, the Lethal dose was over 498 mg/kg. Further, the results for the ED30 in data set [9] (setting [11]) and in data set [9] (setting [12]) were 39 µmol/kg and 4 µmol/kg, respectively.
Consider `Cn1c(=O)c2[nH]cnc2n(C)c1=O` [theophylline, reference compound], for which the ED50 stood at 4.6 µmol/kg in data set [1] (iv), 10 µmol/kg in data set [6] (iv) and 5.6 µmol/kg in data set [7] (iv). In addition, the “Minimum potentiating dose (MPD)” value in data set [3] and in data set [8] was 1000.0 µmol/L in each case. Further, the “inhibition of the stimulation of PMN granulocytes” value in the data set on PMN granulocytes (10^-6 mole/l) is “completely inactive”. The activity at 100 µM in the data set with PMN granulocytes (Rattus norvegicus, 10^-4 mole/l, read-out: Residual chemiluminescence) was 65%. The activity at 1 µM in the data set with PMN granulocytes (setting [10]) worked out at 100%. The minimal effective concentration in data set [5] is 100 µM. In addition, in the data set with cAMP in PMN granulocytes, the “Amount of cAMP produced” value amounted to 5.0 picomoles per 10^7 cells. The ED30 in data set [9] (setting [11]) turned out to be 18 µmol/kg; in data set [9] (setting [12]), 10 µmol/kg.
